Measured values taken from ChEMBL document CHEMBL1143841, “Improved assessment of plasmodium vivax response to antimalarial drugs by a colorimetric double-site plasmodium lactate dehydrogenase antigen capture enzyme-linked immunosorbent assay” (Antimicrob Agents Chemother, 2007).

Columns and labels:
Assay type in all cases: functional, organism-based
Plasmodium vivax [1] = experiment: Growth inhibition of Plasmodium vivax isolate 3 assessed as parasite LDH synthesis after 48 hrs by double-site Plasmodium LDH antigen capture enzyme-linked immunosorbent assay
Plasmodium vivax [2] = experiment: Growth inhibition of Plasmodium vivax isolate 1 assessed as parasite LDH synthesis after 48 hrs by double-site Plasmodium LDH antigen capture enzyme-linked immunosorbent assay
Plasmodium vivax [3] = experiment: Growth inhibition of Plasmodium vivax isolate 4 assessed as parasite LDH synthesis after 48 hrs by double-site Plasmodium LDH antigen capture enzyme-linked immunosorbent assay
Plasmodium vivax [4] = experiment: Growth inhibition of Plasmodium vivax isolate 2 assessed as parasite LDH synthesis after 48 hrs by double-site Plasmodium LDH antigen capture enzyme-linked immunosorbent assay

Question: How did the IC50 (Plasmodium vivax [1]) turn out when `CCN(CC)CCCC(C)Nc1ccnc2cc(Cl)ccc12` (centres undefined) [CHLOROQUINE] was run?
Answer: The IC50 was 89.9 nM.

Question: And the IC50 (Plasmodium vivax [2])?
Answer: The IC50 was 5.5 nM.

Question: What about the IC50 (Plasmodium vivax [3]) of the same compound?
Answer: Its IC50 is 180 nM.

Question: What about the IC50 (Plasmodium vivax [4]) of the same compound?
Answer: The IC50 was 11.9 nM.
